Data as given in US9164084B2, “Methods for determining aggressiveness of a cancer and treatment thereof” (Purdue Research Foundation, priority 2012, dated 2015).
Entries after “also recorded” stand apart in the source; their conditions may differ.

Key:
PC-3 cells [1] = experiment: Cell growth / viable cell number of PC-3 cells; assay type: cell-based, human
Experimental: (§1) Because cholesteryl ester accumulation was found in PCa but not in normal prostate, how cell viability could be affected by regulating cholesteryl ester levels with the ACAT inhibitor Avasimibe was evaluated. […] The inhibitory effect of Avasimibe on the growth of PC-3 and LNCaP-HP cells was considerably greater than that in cholesteryl ester poor cancer cells including LNCaP-LP, DU145, and C4-2.

[2] = tested on: pancreatic cancer cells (BxPC3 and PANC-1); experiment: Western blot of pancreatic cancer cells before and after avasimibe treatment; assay type: cell-based; conditions: pancreatic cancer cells (FIG. 49)
Experimental: In order to understand how lipids accumulate in pancreatic cancer, several in vitro studies using two common pancreatic cancer cell lines, BxPC3 and PANC-1 were performed. Since ACAT is the enzyme responsible for the conversion from cholesterol to cholesteryl ester the effects of inhibiting ACAT-1, the universally expressed isoform, on lipid metabolism in pancreatic cancer cells were first examined. […] To explore the molecular mechanism, western blot of the cells before and after avasimibe treatment were performed.

PANC-1 cells [3] = experiment: Cell viability (ATP level) of PANC-1 cells; assay type: cell-based; conditions: 7.5 μM for various periods
Experimental: (§2) The cells were treated with […] (control) or 7.5 μM avasimibe for various periods. Then cells were lysed and ATP level were quantified to determine the number of viable cells.
(§3) As the ACAT-1 inhibitor, avasimibe, effectively removed lipid droplet or cholesteryl ester accumulation in pancreatic cancer cells, the use of avasimibe as a chemotherapy agent for pancreatic cancer was explored. The effects of avasimibe on cell viability in BxPC3 and PANC-1 cells were examined.

BxPC3 cells [4] = experiment: Cell viability (ATP level) of BxPC3 cells; assay type: cell-based; conditions: 7.5 μM for various periods
Experimental: as §2, §3

LNCaP-HP cells [5] = experiment: Cell growth / viable cell number of LNCaP-HP cells; assay type: cell-based, human; conditions: for proliferation (growth) rate, MTT assay: treatment started at day 1 (FIG. 14)
Experimental: To study the impact of cholesteryl ester storage on tumor growth, the growth rate of LNCaP-HP and LNCaP-LP cells were measured using MTT assay (a colorimetric assay for measuring number of cells present, where the color is proportional to the number of cells).
as §1

LNCaP-HP cells [6] = experiment: Cellular uptake of DiI-labeled LDL in LNCaP-HP cells; assay type: cell-based, human; conditions: 2-day treatment
Text: (§4) Finally, it was investigated whether Avasimibe-mediated suppression of tumor growth is associated with the regulation of cholesterol metabolism machinery. It was hypothesized that abrogating ACAT activity would up-regulate cellular level of free cholesterol and then down-regulate SREBP and LDLr in PCa cells (FIG. 40). […] To provide an explanation for enhanced uptake of LDL and then storage of excess cholesterol in the form of cholesteryl ester in aggressive prostate cancer, it was noticed that LDL is the primary carrier of essential polyunsaturated fatty acid including arachidonic acid (AA). Inside cells, AA is converted to a wide range of eicosanoids, which have been implicated in various pathological processes such as inflammation and cancer.

PC-3 cells [7] = experiment: Flow cytometry analysis of cell cycle and apoptosis in PC-3 cells; assay type: cell-based, human
BxPC3 cells [8] = experiment: CRS microscopy of lipid droplets in BxPC3 cells; assay type: cell-based; conditions: 7.5 μM for 24 h (FIG. 48)
Text: (§5) Coherent Raman scattering (CRS) microscopy is a label-free imaging technique that is highly sensitive to C—H bond abundant structures such as membranes and lipid droplets. By matching the C—H bond stretching vibration mode at 2850 cm^−1, lipid distribution was imaged in human pancreatic cancer (n=10) and normal tissues (n=10) provided by IU School of Medicine. A remarkable amount of lipid droplets in all pancreatic cancer tissues was observed (FIG. 47, Panel B). […] Furthermore, by coupling a spectrometer to the CRS microscope, the devices was able to dissect the composition of individual lipid droplets through confocal Raman spectral analysis. […] Using emulsified mixtures of cholesteryl oleate and glyceryl trioleate (Sigma), it was verified that height ratio of the Raman peak at 702 cm^−1 the Raman peak at 1442 cm^−1 (CH^2 bending vibration mode) is linearly proportional to molar percentage of cholesteryl ester (FIG. 47, Panel D) out of the total neutral lipids. Based on this calibration curve, it was concluded that over 80% of neutral lipids in human pancreatic cancer tissues are cholesteryl ester. In order to understand how lipids accumulate in pancreatic cancer, several in vitro studies using two common pancreatic cancer cell lines, BxPC3 and PANC-1 were performed. […]

PC-3 cells [9] = experiment: Cellular uptake of DiI-labeled LDL in PC-3 cells; assay type: cell-based, human; conditions: PC-3, 2-day treatment
Text: (§6) Because cholesterol can be either de novo synthesized via the mevalonate pathway or taken up from exogenous lipoproteins, the source of cholesterol used for cholesteryl ester accumulation was investigated. PC-3 cell were first treated with Simvastatin, an inhibitor of 3-hydroxy-3-methylglutaryl coenzyme A HMG-CoA reductase, the rate-limiting enzyme of the mevalonate pathway. […] In contrast, after treating cells with lipoprotein-deficient serum (LPDS), lipid droplets nearly disappeared in cholesteryl ester rich PC-3 and LNCaP-HP cells (FIG. 29, Panel A), but remained the same amount in cholesteryl ester poor cells including LNCaP-LP, DU145, and C4-2. Re-addition of low-density lipoprotein (LDL) into the LPDS medium restored lipid droplets and cholesteryl ester in both PC-3 and LNCaP-HP cells (FIG. 29, Panel B).
Finally, it was investigated whether Avasimibe-mediated suppression of tumor growth is associated with the regulation of cholesterol metabolism machinery. It was hypothesized that abrogating ACAT activity would up-regulate cellular level of free cholesterol and then down-regulate SREBP and LDLr in PCa cells (FIG. 40). […]

LNCaP-HP cells [10] = experiment: Spectroscopic (SRL) imaging and Raman spectral analysis of lipid droplets in LNCaP-HP cells; assay type: cell-based, human; conditions: for cholesteryl ester accumulation: ACAT inhibitor treatment
Experimental: The LNCaP-HP cells were treated with an ACAT inhibitor, avasimibe (structure shown in FIG. 13, Panel D), at 10 μM for 2 days.
(§7) A broad spectrum of human prostate epithelial cells has been examined. […] Loss of the tumor suppressor PTEN has been widely observed in both localized and metastatic prostate cancer and correlated with high Gleason grade. With loss of PTEN, PI3K signaling is hyper-activated, which, in turn, leads to AKT activation. […] AKT mediates the phosphorylation and activation of mTOR complex 1 (mTORC1) which plays critical roles in the regulation of protein and lipid biosynthesis. To determine whether the PI3K/AKT/mTOR pathway regulates cholesteryl ester accumulation, both types of cholesteryl ester rich cell lines, PC-3 and high passage LNCaP (LNCaP-HP), were treated with LY294002 (PI3K inhibitor), MK2206 (AKT inhibitor), and Rapamycin (mTOR inhibitor), respectively.
(§8) It is well known that LDL enters a cell via LDL receptor (LDLr) and traffics to the late endosome and lysosome where it is hydrolyzed to free fatty acids and free cholesterol. The excess free cholesterol together with the fatty acyl CoA substrate is then converted to cholesteryl ester by Acyl coenzyme A: cholesterol acyltransferase (ACAT) and stored in lipid droplets. Thus, cells were separately treated with Avasimibe and Sandoz 58-035, two different ACAT inhibitors. […] The significant reduction of cholesteryl ester accumulation upon Avasimibe treatment was further confirmed by an independent biochemical assay of cell lysates.

PC-3 cells [11] = experiment: Spectroscopic imaging and Raman spectral analysis of lipid droplets in PC-3 cells; assay type: cell-based, human; conditions: for cholesteryl ester accumulation: ACAT inhibitor treatment
Text: as §7, §6, §8

PC-3 cells [12] = experiment: LC-MS of arachidonic acid (AA) in PC-3 cell lysates; assay type: cell-based, human
Text: as §4

PC-3 cells [13] = experiment: Standard biochemical assay of CE and free cholesterol in PC-3; assay type: cell-based, human; conditions: PC-3, 2-day treatment
Text: as §8, §4

PC-3 xenografts = experiment: Mice bearing PC-3 xenografts treated with Avasimibe; assay type: in vivo
Experimental: To test the potential of using Avasimibe to treat advanced PCa in vivo, Avasimibe (15 mg/kg body weight by i.p. injection) was administered to the mice bearing PC-3 xenografts. Daily treatment of mice with the Avasimibe inhibited the growth of PC-3 tumors by ˜2 folds (FIG. 33), and induced ˜40% reduction in tumor weight by the end of 30-day treatment (FIG. 34).

LNCaP-HP cells [14] = experiment: Immunoblotting of SREBP and LDLr in LNCaP-HP cells; assay type: cell-based, human
Text: as §4

[15] = tested on: normal prostate RWPE1 cell; experiment: Toxic effect on normal prostate RWPE1 cell; assay type: cell-based; conditions: at the same doses
PANC-1 cells [16] = experiment: CRS microscopy and Raman spectroscopy of cholesteryl ester in PANC-1 cells; assay type: cell-based; conditions: 7.5 μM for 24 h (FIG. 48)
Text: as §5

PC-3 cells [17] = experiment: Immunoblotting of SREBP and LDLr in PC-3 cells; assay type: cell-based, human
Text: It has been shown that mTOR plays a key role in regulating the function of sterol regulatory element-binding proteins (SREBPs) which control lipid and cholesterol homeostasis. Specifically, when cellular sterol levels decrease, SREBP-1a and/or -2 precursors are cleaved to activate the expression of genes involved in de novo cholesterol synthesis and LDL-cholesterol uptake. […] Similar results for on LNCaP-HP cells were obtained.
as §4

CCCCC/C=C\C/C=C\C/C=C\C/C=C\CCCC(=O)O [AA, arachidonic acid]
growth of PC-3 cells (PC-3 cells [1]; added LDL or AA (FIG. 46)): promoted the growth of PC-3 cells in a dose-dependent manner

CC(C)c1cc(C(C)C)c(CC(=O)NS(=O)(=O)Oc2c(C(C)C)cccc2C(C)C)c(C(C)C)c1 [Avasimibe, avasimibe]
HMGCoA reductase level (western blot) [2]: significantly reduced the level of HMGCoA reductase
HMGCoA reductase level (western blot) ([2]; listed as avasimibe): reduced the expression of HMGCoA reductase
LDL receptor level (western blot) ([2]; listed as avasimibe): not affected
cell viability (ATP level) (PANC-1 cells [3]): significantly reduced cell viability
cell viability (ATP level) (PANC-1 cells [3]; listed as avasimibe): significantly reduced the viability; also recorded: dramatically reduced the cell viability
cell viability (ATP level) (BxPC3 cells [4]): significantly reduced cell viability
cell viability (ATP level) (BxPC3 cells [4]; listed as avasimibe): significantly reduced the viability; also recorded: dramatically reduced the cell viability
IC50 (LNCaP-HP cells [5]; Homo sapiens, 72 h, LNCaP-HP cell, 3 days): 9.64 µM
cytotoxicity at 7.5 µM (LNCaP-HP cells [5]; Homo sapiens, 72 h, LNCaP-HP cells, 3 days of 7.5 μM, read-out: reduction in viable cell number): ~55%
proliferation (viable cell number) (LNCaP-HP cells [5]; LNCaP-HP cells (FIG. 31)): significantly hampered the proliferation
proliferation (growth) rate, MTT assay (LNCaP-HP cells [5]; LNCaP-HP cells): significantly slowed down the proliferate rate
proliferation (growth) rate, MTT assay (LNCaP-HP cells [5]; LNCaP-HP cells, listed as avasimide): significantly reduced growth rate
uptake of DiI-labeled LDL (LNCaP-HP cells [6]): drastically inhibited LDL uptake
G2/M phase population compared to control group (PC-3 cells [7]): 2 times smaller
sub G0/G1 population compared to control group (PC-3 cells [7]): ~3 times larger
lipid droplet amount (BxPC3 cells [8]): reduced lipid droplet amount
lipid droplet amount (BxPC3 cells [8]; listed as avasimibe): reduced the lipid droplet amount; also recorded: significantly reduced the amount of lipid droplets
IC50 (PC-3 cells [1]; Homo sapiens, 72 h, PC-3 cell, 3 days): 7.32 µM
cytotoxicity at 7.5 µM (PC-3 cells [1]; Homo sapiens, 72 h, PC-3 cells, 3 days of 7.5 μM, read-out: reduction in viable cell number): ~48%
proliferation (viable cell number) (PC-3 cells [1]; PC-3 cells (FIG. 31)): significantly hampered the proliferation
uptake of DiI-labeled LDL (PC-3 cells [9]): drastically inhibited LDL uptake
lipid droplet amount (LNCaP-HP cells [10]): remaining unchanged
accumulation of cholesteryl ester in lipid droplets (702 cm^-1 Raman peak) (LNCaP-HP cells [10]; 10 μM for 2 days): completely blocked the accumulation of CHOLESTERYL ESTER
cell morphology (LNCaP-HP cells [10]; 10 μM for 2 days): reversed the cell morphology to that of LNCaP-LP cells
cholesteryl ester accumulation (LNCaP-HP cells [10]): effectively suppressed cholesteryl ester accumulation
lipid droplet amount (PC-3 cells [11]): remaining unchanged
cholesteryl ester accumulation (PC-3 cells [11]): effectively suppressed cholesteryl ester accumulation
level of AA (arachidonic acid) (PC-3 cells [12]): significantly reduced the level of AA
level of CE (PC-3 cells [13]): reduced the level of CE
level of free cholesterol (PC-3 cells [13]): slightly increased the level of free cholesterol
increase of apoptosis (TUNEL IHC) (PC-3 xenografts; PC-3 tumor): ~2 folds
reduction of proliferation (Ki67 IHC) (PC-3 xenografts; PC-3 tumor): ~70%
cholesteryl ester content in PC-3 tumor (spectroscopic imaging of extracted tissues) (PC-3 xenografts; compared to vehicle-treated): significantly dropped
tumor size compared to controls (PC-3 xenografts; mice (FIG. 33)): decreased tumor size
body weight over the course of treatment (PC-3 xenografts; mice (FIG. 36)): remained steady
pathological review of heart, kidney, liver, lung, and spleen (PC-3 xenografts; mice receiving Avasimibe): no signs of toxicity
appearance of harvested tumors (PC-3 xenografts; mice, 15 mg/kg i.p. daily): less bloody in appearance
reduction in tumor weight (PC-3 xenografts; mice, 15 mg/kg i.p. daily, end of 30-day treatment): ~40%
inhibition of growth of PC-3 tumors (PC-3 xenografts; mice, 15 mg/kg i.p., daily treatment): ~2 folds
general toxicity (animal behavior, body weight) (PC-3 xenografts; mouse, in vivo, ip, 15 mg/kg): did not cause general toxicity
LDLr level (immunoblot) (LNCaP-HP cells [14]): down-regulation
SREBP-2 level (immunoblot) (LNCaP-HP cells [14]): down-regulation
toxic effect on normal prostate cell [15]: no toxic effect
cholesteryl ester accumulation (PANC-1 cells [16]): blocked cholesteryl ester accumulation
cholesteryl ester accumulation (PANC-1 cells [16]; listed as avasimibe): eliminated cholesteryl ester; also recorded: blocked cholesteryl ester accumulation
LDLr level (immunoblot) (PC-3 cells [17]): down-regulation
SREBP-1 level (immunoblot) (PC-3 cells [17]): down-regulation

NC1(c2ccc(-c3nc4ccn5c(=O)[nH]nc5c4cc3-c3ccccc3)cc2)CCC1 [MK2206]
autofluorescent granules indicative of autophagy (LNCaP-HP cells [10]): induced massive accumulation of autofluorescent granules
lipid droplet amount (LNCaP-HP cells [10]): radically removed lipid droplets
autofluorescent granules indicative of autophagy (PC-3 cells [11]): induced massive accumulation of autofluorescent granules
lipid droplet amount (PC-3 cells [11]): radically removed lipid droplets

CCCCCCCCCC[Si](C)(C)CCC(=O)NC(Cc1ccc(C)cc1)c1ccccc1 (centres unmarked) [Sandoz 58-035]
lipid droplet amount (LNCaP-HP cells [10]): remaining unchanged
cholesteryl ester accumulation (LNCaP-HP cells [10]): effectively suppressed cholesteryl ester accumulation
lipid droplet amount (PC-3 cells [11]): remaining unchanged
cholesteryl ester accumulation (PC-3 cells [11]): effectively suppressed cholesteryl ester accumulation
